In brackets after ≈: the same amount, converted by molar mass.
Assays:
[1] = VZV plaque reduction assay; assay type: cell-based; conditions: Human alphaherpesvirus 3, V2V
Method: The procedure is essentially the same as for the HSV plaque assay described above with two exceptions:
1. After addition of the drug, the plates are incubated for ten days.
2. On days three and six an additional 1 ml overlay with equal amounts of 2×MEM and 1% agarose are added.
(§1) The procedure for the liquid overlay plaque assay is similar to that using the agarose overlay. The procedure for adding the virus is the same as for the regular plaque assay. The drugs are made up in a concentration to be used in MEM with 2% FBS. The drugs are not made up at 2×concentration as in previous assays but are made up at the desired concentration. For HSV-1 and HSV-2 assays, an antibody preparation obtained from Baxter Health Care Corporation is diluted 1:500 and added to the media that the drug is diluted in. For CMV and VZV, no antibody in the overlay is utilized. For the CMV assay, additional medium without new drug is added on day six and allowed to incubate for a total of 11 days. For VZV, additional media is added on day five and incubated for a total of eight days. At the end of the incubation period for all of the assays, the medium is removed, the cells washed and then stained with 0.1% crystal violet solution for ten minutes. […]
(§2) I. EC50 values were also determined for each of the viruses tested for known antiviral agents. […]

HSV-2 = HSV-2 cytopathic effect (CPE) inhibition assay; assay type: cell-based; conditions: Human alphaherpesvirus 2; HSV-2, CPE
Method: (§3) Low passage human foreskin fibroblast cells were seeded into 96 well tissue culture plates 24 hours prior to use at a cell concentration of 2.5×10^4 cells per ml in 0.1 ml (MEM) supplemented with 10% fetal bovine serum (FBS). The cells were then incubated for 24 hour at 37° C. in a CO2 incubator. After incubation, the medium was removed and 100 μl of MEM containing 2% FBS was added to all but the first row. In the first row, 125 μl of experimental drug was added in triplicate wells. Medium alone was added to both cell and virus control wells. The drug in the first row of wells was then diluted serially 1:5 throughout the remaining wells by transferring 25 μl using the Cetus Liquid Handling Machine. After dilution of drug, 100 μl of the appropriate virus concentration was added to each well, excluding cell control wells which received 100 μl of MEM. For HSV-1 and HSV-2 assays, the virus concentration utilized was 1000 PFU's per well. For CMV and VZV assays, the virus concentration added was 2500 PFU per well. The plates were then incubated at 37° C. in a CO2 incubator for three days for HSV-1 and HSV-2, 10 days for VZV, or 14 days for CMV. […] The plates were allowed to dry for 24 h and then read on a Skatron Plate Reader at 620 nm.
as §2

EBV = EBV IMN assay; assay type: cell-based; conditions: human gammaherpesvirus 4, EBV
Method: (§4) I. EC50 values were also determined for each of the viruses tested for known antiviral agents. The comparison compound was ACV for all viruses except for HCMV aherein DHPG was the comparison compound. In Table 26, these comparison EC50 values are indicated with an asterisk. In Table 27, the drug FIAU (2'-fluoro-5-iodo-arabinosyl-uracil) was used as a control.

HSV-1 [2] = assay: HSV-1 cytopathic effect (CPE) inhibition assay; assay type: cell-based; conditions: Human alphaherpesvirus 1; HSV-1, CPE
Method: as §3, §2

HSV-1 [3] = assay: HSV-1 plaque reduction assay; assay type: cell-based; conditions: Human alphaherpesvirus 1, read-out: EC50
Method: Two days prior to use, HFF cells are plated into six well plates and incubated at 37° C. with 5% CO2 and 90% humidity. On the date of assay, the drug is made up at twice the desired concentration in 2×MEM and then serially diluted 1:5 in 2×MEM using six concentrations of drug. The initial starting concentration is usually 200 μg/ml down to 0.06 μg/ml. The virus to be used is diluted in MEM containing 10% FBS to a desired concentration which will give 20-30 plaques per well. The media is then aspirated from the wells and 0.2 ml of virus is added to each well in duplicate with 0.2 ml of media being added to drug toxicity wells. The plates are then incubated for one hour with shaking every fifteen minutes. After the incubation period, an equal amount of 1% agarose was added to a equal volume of each drug dilution. This will give final drug concentrations beginning with 100 μg/ml and ending with 0.03 μg/ml and a final agarose overlay concentration of 0.5%. The drug agarose mixture is applied to each well in 2 ml volume and the plates then incubated for three days, after which the cells were stained with a 1.5% solution of neutral red. At the end of 4-6 hr incubation period, the stain is aspirated, and plaques counted using a stereomicroscope at 1×magnification.
The procedure for the liquid overlay plaque assay is similar to that using the agarose overlay. The procedure for adding the virus is the same as for the regular plaque assay. The drugs are made up in a concentration to be used in MEM with 2% FBS. The drugs are not made up at 2×concentration as in previous assays but are made up at the desired concentration. For HSV-1 and HSV-2 assays, an antibody preparation obtained from Baxter Health Care Corporation is diluted 1:500 and added to the media that the drug is diluted in. For CMV and VZV, no antibody in the overlay is utilized. For the CMV assay, additional medium without new drug is added on day six and allowed to incubate for a total of 11 days. For VZV, additional media is added on day five and incubated for a total of eight days. At the end of the incubation period for all of the assays, the medium is removed, the cells washed and then stained with 0.1% crystal violet solution for ten minutes. The cells are then rinsed several times to remove any excess crystal violet and plaques enumerated using a stereomicroscope.
as §4

HFF cells [4] = assay: MTT assay for cell cytotoxicity; assay type: cell-based, human; conditions: stationary cells
Method: Twenty-four hours prior to assay, HFF cells are plated into 96 well plates at a concentration of […] cells per well. After 24 h, the media is aspirated and […] of drug is added to the first row of wells and then diluted serially 1:5 using the automated Cetus Liquid Handling System in a manner similar to that used in the CPE assay. The plates are then incubated in a CO2 incubator at 37° C. for seven days. At this time, each well receives 50 microliters of […] solution of MTT in Dulbecco's Phosphate Buffered Saline. The plates are then incubated for an additional four hours. At this time, the media is removed and replaced with 100 μl of 0.04N hydrochloric acid in isopropanol. After shaking briefly, the plates are then read on a plate reader at 550 nm.

HFF cells [5] = assay: Cell proliferation assay; assay type: cell-based, human; conditions: rapidly growing cells
Method: Twenty-four hours prior to assay, HFF cells are seeded in 6-well plates at a concentration of 2.5×10^4 cells per well in MEM containing 10% FBS. On the day of the assay, drugs are diluted serially in MEM containing 10% FBS at increments of 1:5 covering a range from 100 μg/ml to 0.03 μg/ml. […] The media from the wells is then aspirated and 2 ml of each drug concentration is then added to each well. The cells are then incubated in a Co2 incubator at 37° C. for 72 h. At the end of this time, the media-drug solution is removed and the cells washed. […] The cell-media mixture is then pipetted up and down vigorously to break up the cell suspension and 0.2 ml of the mixture is added to 9.8 ml of Isoton III and counted using a Coulter Counter. Each sample is counted three times with three replicate wells per sample.

HFF cells [6] = assay: Neutral red uptake toxicity; assay type: cell-based, human; conditions: stationary cells
HCMV = HCMV plaque assay; assay type: cell-based; conditions: Human betaherpesvirus 5, HCMV
Method: The procedure is essentially the same as for HSV analysis with the following minor changes. The agarose used for the initial overlay and the two subsequent overlays is 0.8% rather than 1%. The assay is incubated for 14 days with the additional 1 ml overlays being applied on days four and eight.
as §1, §2

Compound | toxicity IC50, MTT toxicity (HFF cells [4]) [MCG/ML] | toxicity IC50, cell proliferation (HFF cells [5]) [MCG/ML] | toxicity IC50, neutral red uptake (HFF cells [6]) [MCG/ML] | further results
Nc1nc2c(ncn2COCCO)c(=O)[nH]1 [ACV] | – | – | – | EC50 [1]: 3.2 µg/mL (≈ 14.2 µM); EC50 (HSV-2): 0.7 µg/mL (≈ 3.11 µM); EC50 (EBV): 5.8 µg/mL (≈ 25.8 µM); EC50 (HSV-1 [2]): 0.2 µg/mL (≈ 0.888 µM); EC50 (HSV-1 [3]): 0.2 µg/mL (≈ 0.888 µM)
CC1=[N+]2CC[N+]3=C(C)C=C(c4ccccc4)[O][Co-3]23([NH3+])([NH3+])[O]C(c2ccccc2)=C1.[Cl-] [Compound 64] | 53 | 38 | 15.2 | –
CC1=C(Cl)C(C)=[N+]2CC[N+]3=C(C)C(Cl)=C(C)[O][Co-3]23([NH3+])([NH3+])[O]1.[Cl-] [Compound 67] | 42.0 | 12.0 | 12.1 | –
Nc1nc2c(ncn2COC(CO)CO)c(=O)[nH]1 [DHPG] | – | – | – | EC50 (HCMV): 0.9 µg/mL (≈ 3.53 µM)
